According to article PMC9875028, “Identification and virtual screening of novel anti-inflammatory peptides from broccoli fermented by Lactobacillus strains” (Frontiers in Nutrition, 2023):
Entries after “also recorded” stand apart in the source; their conditions may differ.

Tests used:
NO = NO release from LPS-stimulated RAW264.7 cells (Griess reagent); format: cell-based, Mouse; conditions: LPS 200 ng/mL; for inhibition rate of NO release: mean ± SD, n = 3
Description: (§1) RAW264.7 cells were cultured in DMEM medium containing 10% FBS and 1% double antibody at 37°C and 5% CO2 incubator. CCK-8 reagent was used for cell viability assay.
(§2) RAW264.7 cells (3 × 10^6 cells / mL) seeded into 12-well plates were pretreated with various concentrations of broccoli hydrolyzates or synthetic peptides for 2 h before stimulation by LPS (200 ng/mL). NO was determined using Griess reagent. TNF-α and IL-6 were measured by ELISA kits according to the manufacturer's instructions. More details of the assay are shown in Supplementary Table S2.

TNF-α [1] = assay: TNF-α secretion by LPS-stimulated RAW264.7 cells (ELISA); format: cell-based, Mouse; conditions: for effect on TNF-α production (in words): synthetic peptides 25, 50, 100 μM; for effect on TNF-α production (in words) / inhibition rate on TNF-α: LPS 200 ng/mL; for inhibition rate on TNF-α: mean ± SD, n = 3
Description: as §1, §2

IL-6 [2] = assay: IL-6 secretion by LPS-stimulated RAW264.7 cells (ELISA); format: cell-based, Mouse; conditions: for effect on IL-6 production (in words): synthetic peptides 25, 50, 100 μM
Description: as §1, §2

TNF-α [3] = system: TNF-α; design: method as in doi:10.1016/j.jff.2020.104044; conditions: sturgeon protein peptide; cited from earlier work
IL-6 [4] = system: IL-6; design: method as in doi:10.1016/j.jff.2020.104044; conditions: sturgeon protein peptide; cited from earlier work
[5] = peptide concentration exceeding 25 μM

## SIWYGPDRP [synthetic peptide identified from broccoli hydrolysate]
NO; synthetic peptide 25 μM
  inhibition rate of NO release: 52.32 ± 1.48%

## GDRW [synthetic peptide identified from broccoli hydrolysate]
TNF-α [1]
  effect on TNF-α production (in words): significantly inhibited
IL-6 [2]; LPS 200 ng/mL
  effect on IL-6 production (in words): significantly inhibited

## CKVWPPLH
TNF-α [1]; synthetic peptide 100 μM
  inhibition rate on TNF-α: 73.83 ± 0.81%
TNF-α [1]
  effect on TNF-α production (in words): dose-dependently decreased TNF-α

## FGDFNPGGRL [synthetic peptide identified from broccoli hydrolysate]
TNF-α [1]; synthetic peptide 100 μM
  inhibition rate on TNF-α: 68.44 ± 5.63%
TNF-α [1]
  effect on TNF-α production (in words): dose-dependently decreased TNF-α
IL-6 [2]; LPS 200 ng/mL
  effect on IL-6 production (in words): only inhibited IL-6 at a concentration of 50 μM

## DGRYW [synthetic peptide identified from broccoli hydrolysate]
NO; synthetic peptide 100 μM
  inhibition rate of NO release: 53.94 ± 2.49%
NO; synthetic peptides 25, 50, 100 μM
  effect on NO secretion (in words): reduced NO content in inflammatory cells in a dose-dependent manner

## ADLAHLPF [synthetic peptide identified from broccoli hydrolysate]
TNF-α [1]; synthetic peptide 100 μM
  inhibition rate on TNF-α: 73.19 ± 5.31%
TNF-α [1]
  effect on TNF-α production (in words): significantly inhibited; also recorded: dose-dependently decreased TNF-α
IL-6 [2]; LPS 200 ng/mL
  effect on IL-6 production (in words): significantly inhibited

## KIWHHFF
TNF-α [3]
  TNF-α inhibitory activity (in words): did not exhibit TNF-α inhibitory activity
IL-6 [4]
  inhibition of LPS-induced IL-6 secretion (in words): inhibited LPS-induced IL-6 secretion only at the lowest concentration

## KASFAFAGL [synthetic peptide identified from broccoli hydrolysate]
TNF-α [1]; [5]
  inhibitory activity on TNF-α secretion (in words): did not show inhibitory activity
TNF-α [1]; synthetic peptide 25 μM (low dose)
  inhibition rate on TNF-α: 43.59 ± 0.27%
IL-6 [2]; [5]
  inhibitory activity on IL-6 secretion (in words): did not show inhibitory activity
IL-6 [2]; synthetic peptide 25 μM (low dose), LPS 200 ng/mL, mean ± SD, n = 3
  inhibition rate on IL-6: 29.84 ± 0.63%
